Measured values reported in ChEMBL document CHEMBL3044779, “The action of herbicides on fatty acid biosynthesis and elongation in barley and cucumber” (Pest Manag Sci, 2010).
Calls of active or inactive are those of the source. The calls are words filed in the database; no cut-off is given here.

Legend:
[1] = tested on: Hordeum vulgare; assay: Inhibition of fatty acid synthesis in Hordeum vulgare (barley) assessed as inhibition of [14C]malonate incoporation in total fatty acids at 300 uM measured after 3 hr by liquid scintillation counting; type: functional, organism-based
[2] = tested on: Cucumis sativus; assay: Inhibition of fatty acid synthesis in Cucumis sativus (cucumber) using [14C]acetate assessed as [14C]-labeled 24C fatty acid level at 300 uM after 3 hr by liquid scintillation counting (reference value: 6.5 +/- 1%); type: functional; design: scale not given: the % may be the effect or the level left
[3] = tested on: Hordeum vulgare; assay: Inhibition of fatty acid synthesis in Hordeum vulgare (barley) using [14C]malonate assessed as inhibition of [14C]-labeled 22C fatty acid production at 300 uM after 3 hr by liquid scintillation counting; type: functional, organism-based
[4] = tested on: Cucumis sativus; assay: Inhibition of fatty acid synthesis in Cucumis sativus (cucumber) assessed as inhibition of [14C]acetate incoporation in total fatty acids at 300 uM measured as total disintegration per g of fresh weight after 3 hr by liquid scintillation counting (reference value: 6.4 +/- 1.2 dpm x 10^6 g'1 fresh wt); type: functional
[5] = tested on: Hordeum vulgare; assay: Inhibition of fatty acid synthesis in Hordeum vulgare (barley) using [14C]malonate assessed as inhibition of [14C]-labeled 18C fatty acid production at 300 uM after 3 hr by liquid scintillation counting; type: functional, organism-based
[6] = tested on: Cucumis sativus; assay: Inhibition of fatty acid synthesis in Cucumis sativus (cucumber) using [14C]malonate assessed as inhibition of [14C]-labeled 20C fatty acid production at 300 uM after 3 hr by liquid scintillation counting; type: functional, organism-based
[7] = tested on: Cucumis sativus; assay: Inhibition of fatty acid synthesis in Cucumis sativus (cucumber) assessed as inhibition of [14C]malonate incoporation in total fatty acids at 300 uM measured after 3 hr by liquid scintillation counting; type: functional, organism-based
[8] = tested on: Hordeum vulgare; assay: Inhibition of fatty acid synthesis in Hordeum vulgare (barley) assessed as inhibition of [14C]acetate incoporation in total fatty acids at 300 uM measured as total disintegration per g of fresh weight after 3 hr by liquid scintillation counting (reference value: 5.7 +/- 0.5 dpm x 10^6 g'1 fresh wt); type: functional
[9] = tested on: Cucumis sativus; assay: Inhibition of fatty acid synthesis in Cucumis sativus (cucumber) using [14C]malonate assessed as inhibition of [14C]-labeled 22C fatty acid production at 300 uM after 3 hr by liquid scintillation counting; type: functional, organism-based
[10] = tested on: Cucumis sativus; assay: Inhibition of fatty acid synthesis in Cucumis sativus (cucumber) using [14C]malonate assessed as inhibition of [14C]-labeled 18C fatty acid production at 300 uM after 3 hr by liquid scintillation counting; type: functional, organism-based
[11] = tested on: Hordeum vulgare; assay: Inhibition of fatty acid synthesis in Hordeum vulgare (barley) using [14C]acetate assessed as [14C]-labeled 20C fatty acid level at 300 uM after 3 hr by liquid scintillation counting (reference value: 4.7 +/- 1.6%); type: functional; design: scale not given: the % may be the effect or the level left
[12] = tested on: Hordeum vulgare; assay: Inhibition of fatty acid synthesis in Hordeum vulgare (barley) using [14C]malonate assessed as inhibition of [14C]-labeled 16C fatty acid production at 300 uM after 3 hr by liquid scintillation counting; type: functional, organism-based
[13] = tested on: Hordeum vulgare; assay: Inhibition of fatty acid synthesis in Hordeum vulgare (barley) using [14C]malonate assessed as inhibition of [14C]-labeled 24C fatty acid production at 300 uM after 3 hr by liquid scintillation counting; type: functional, organism-based
[14] = tested on: Cucumis sativus; assay: Inhibition of fatty acid synthesis in Cucumis sativus (cucumber) using [14C]malonate assessed as inhibition of [14C]-labeled 24C fatty acid production at 300 uM after 3 hr by liquid scintillation counting; type: functional, organism-based
[15] = tested on: Hordeum vulgare; assay: Inhibition of fatty acid synthesis in Hordeum vulgare (barley) using [14C]acetate assessed as [14C]-labeled 22C fatty acid level at 300 uM after 3 hr by liquid scintillation counting (reference value: 5.5 +/- 0.2%); type: functional; design: scale not given: the % may be the effect or the level left
[16] = tested on: Cucumis sativus; assay: Inhibition of fatty acid synthesis in Cucumis sativus (cucumber) using [14C]acetate assessed as [14C]-labeled 16C fatty acid level at 300 uM after 3 hr by liquid scintillation counting (reference value: 29.2 +/- 3.5%); type: functional; design: scale not given: the % may be the effect or the level left
[17] = tested on: Hordeum vulgare; assay: Inhibition of fatty acid synthesis in Hordeum vulgare (barley) using [14C]acetate assessed as [14C]-labeled 16C fatty acid level at 300 uM after 3 hr by liquid scintillation counting (reference value: 29.5 +/- 1.3%); type: functional; design: scale not given: the % may be the effect or the level left
[18] = tested on: Hordeum vulgare; assay: Inhibition of fatty acid synthesis in Hordeum vulgare (barley) using [14C]malonate assessed as inhibition of [14C]-labeled 20C fatty acid production at 300 uM after 3 hr by liquid scintillation counting; type: functional, organism-based
[19] = tested on: Cucumis sativus; assay: Inhibition of fatty acid synthesis in Cucumis sativus (cucumber) using [14C]acetate assessed as [14C]-labeled 20C fatty acid level at 300 uM after 3 hr by liquid scintillation counting (reference value: 5.1 +/- 0.7%); type: functional; design: scale not given: the % may be the effect or the level left
[20] = tested on: Cucumis sativus; assay: Inhibition of fatty acid synthesis in Cucumis sativus (cucumber) using [14C]malonate assessed as inhibition of [14C]-labeled 16C fatty acid production at 300 uM after 3 hr by liquid scintillation counting; type: functional, organism-based
[21] = tested on: Cucumis sativus; assay: Inhibition of fatty acid synthesis in Cucumis sativus (cucumber) using [14C]acetate assessed as [14C]-labeled 18C fatty acid level at 300 uM after 3 hr by liquid scintillation counting (reference value: 41.2 +/- 1.1%); type: functional; design: scale not given: the % may be the effect or the level left
[22] = tested on: Hordeum vulgare; assay: Inhibition of fatty acid synthesis in Hordeum vulgare (barley) using [14C]acetate assessed as [14C]-labeled 18C fatty acid level at 300 uM after 3 hr by liquid scintillation counting (reference value: 60.3 +/- 1.3%); type: functional; design: scale not given: the % may be the effect or the level left
[23] = tested on: Cucumis sativus; assay: Inhibition of fatty acid synthesis in Cucumis sativus (cucumber) using [14C]acetate assessed as [14C]-labeled 22C fatty acid level at 300 uM after 3 hr by liquid scintillation counting (reference value: 17.9 +/- 2.5%); type: functional; design: scale not given: the % may be the effect or the level left

SMILES: CN(C)C(=O)C(c1ccccc1)c1ccccc1 [DIPHENAMIDE]
- inhibition [1]: inactive
- Activity [2]: 5.1%
- inhibition [3]: inactive
- Activity [4]: 6.9 ×10⁶ dpm
- inhibition [5]: inactive
- inhibition [6]: inactive
- inhibition [7]: inactive
- Activity [8]: 4 ×10⁶ dpm
- inhibition [9]: inactive
- inhibition [10]: inactive
- Activity [11]: 7.9%
- inhibition [12]: inactive
- inhibition [13]: inactive
- inhibition [14]: inactive
- Activity [15]: 7.6%
- Activity [16]: 26.8%
- Activity [17]: 18.4%
- inhibition [18]: inactive
- Activity [19]: 6.1%
- inhibition [20]: inactive
- Activity [21]: 48.1%
- Activity [22]: 66.1%
- Activity [23]: 13.9%
